Results on 17 compounds are retold here after patent US9695133B2, “Quinazolinone-based oncogenic-RAS-selective lethal compounds and their use” (THE TRUSTEES OF COLUMBIA UNIVERSITY IN THE CITY OF NEW YORK, priority 2012, dated 2017).

Like-named read-outs stand apart in the source and are kept apart here.

In data set [1] the test system is HT-1080 cells. Nature of the data set: Cell death rescue by ALOX and COX inhibitors in HT-1080 cells. The format is cell-based, human. The note with it: for suppression of cell death induced by RSL compounds / suppression of cell death induced by non-RSL compounds: HT-1080 cells, 10 μM BAI or 50 μM ZIL, 24 hours; for suppression of erastin-induced cell death: inhibitor concentrations of Table 2. The method, then:
HT-1080 cells were seeded in 384-well plates, treated with the indicated amount of compounds with or without 10 μM of BAI or 50 μM of ZIL for 24 hours. The percent growth inhibition was determined using alamar blue.
Lethal compounds were added to HT-1080 cells in the presence or absence of ALOX or COX inhibitors in a 2-fold dilution series. The concentrations of the inhibitors are listed along with vendor information in Table 2. Cell viability was determined using alamar blue and percent growth inhibition calculated as described above.

Data set [2] has as its system GPX4. As to the kind of experiment: GPX4 knockdown (siGPX4) in HT-1080 cells.
Data set [3] relates to GFP-ALOX5. Nature of the data set: GFP-ALOX5 translocation in HT-1080 cells. Format: cell-based, human. The method, then: HT-1080 cells stably expressing GFPALOX5 were treated with the indicated compounds under the conditions detailed in FIG. 13b. […] Note that digioxin (DIG) did translocate GFP-ALOX5 to the perinuclear membrane region in a small portion of the cell population (arrow). Digioxin is known to increase cellular calcium concentration that can translocate GFP-ALOX5, similarly to ionomycin. Scale bars, 60 μm.
(§1) A cDNA of ALOX5 (GeneBank ID: BC130332.1) was cloned into a pBabe-puro vector to express GFP fused ALOX5 (N-terminal GFP fusion) in cells. The plasmid was transfected into PLAT-GP cells (Cell Biolabs Inc., cat # RV-103, San Diego, Calif.) along with a pVSV-G helper plasmid to produce retrovirus harboring the expression plasmid. 0.2 million target cells (BJeH, BJeHLT, BJeLR or HT-1080 cells) were seeded in 10 cm tissue culture dishes and incubated in the tissue culture incubator for 1 day. A frozen stock of retrovirus solution was thawed at 37° C. for 2 minutes, and polybrene (Sigma, cat. # H9268) was added at a final concentration of 8 μg/mL. Culture medium was replaced with virus/polybrene mix and the culture dish was incubated for two hours with rocking every 30 minutes. After 2 hours, 10 mL of growth media was added to culture dish, and the culture was incubated further for 2 days. Cell lines stably expressing GFP-ALOX5 protein were selected using 1.5 μg/mL puromycin and used for the GFP-ALOX5 translocation assay.
Next, GFP-ALOX5-expressing HT-1080 cells were treated with these non-RSL and RSL compounds and changes in the location of GFP-ALOX5 were monitored as a measure of ALOX protein activation. […] Digoxin is known to elevate intracellular calcium (McGarry et al., 1993), which is likely to cause the translocation of GFP-ALOX5, similar to ionomycin. Note that ionomycin and digoxin are not RSL compounds and induce translocation of GFP-ALOX5 non-specifically in the BJ-derived cell lines (FIGS. 7 and 13). The results highlight the importance of selective ALOX activation for the induction of the RSL phenotype.

In data set [4] the test system is HT-1080 cells. To be noted: 24 hours.
Data set [5] has as its system U-2 OS cells. Nature of the data set: U-2 OS cell viability (alamar blue) with TBHP or NAC. Format: cell-based. A general note: Resazurin is reduced to fluorescent resorufin, in cell work by metabolically active cells.
The subject of data set [6] is ALOX15B and ALOXE3. Nature of the data set: ALOX15B / ALOXE3 siRNA knockdown and lethal compound sensitivity in HT-1080 cells. Format: cell-based, human. The method, then: HT-1080 cells were transfected with siRNA pools targeting either ALOX15B or ALOXE3, and then, treated with the indicated RSL compounds in 2-fold dilution series. 24 hours after compound treatment, alamar blue was added to the culture at a final concentration of 10% in growth media to determine cell viability. The percent growth inhibition was calculated from the fluorescence intensity of each well in 384-well assay plates. Data points represent mean of duplicates.
Small interfering RNA (siRNA) pools targeting ALOX15B and ALOXE3 were obtained from Dharmacon Technologies (Lafayette, Colo.). On the day of reverse-transfection, a cocktail of 1 mL of Opti-MEM (Invitrogen Corp., Carlsbad, Calif.), 6 μL of Lipofectamine RNAiMAX (Invitrogen), and 5 μL of 10 μM siRNA were prepared and transferred to each well of a 6-well plate. The 6-well plate was put in the tissue culture incubator for 20 minutes to allow the formation of transfection mixture. While the complex was forming, HT-1080 cells were trypsinized and the cell number was determined using ViCell (Trypan Blue). 200,000 cells were prepared in 1 mL of growth media with 2× serum, and then, the cell suspension was transferred to each well containing 1 mL of the transfection mix. The 6-well plate was returned to the incubator and the culture grown for 2 days. […]

Data set [7] relates to GFP-ALOX5. Nature of the data set: GFP-ALOX5 translocation in BJ-derived cell lines. Format: cell-based, human. The method, then: as §1
ALOX5 is one of the six human ALOX genes and plays a critical role in leukotriene synthesis. In the basal state, the ALOX5 protein remains in the nucleus; however, upon activation, it translocates to the nuclear membrane (Chen et al., 2001). […] Second, calcium chelators were not effective in suppressing erastin-induced cell death (Wolpaw et al., 2011).

Data set [8] has as its system BJeLR cells. As to the kind of experiment: Lipid peroxide detection using BODIPY-C11 in BJ-derived cells. The format is cell-based, human.
Data set [9] relates to BJ-derived cell lines. Nature of the data set: GSH depletion assay in BJ-derived cell lines. Format: cell-based, human. To be noted: BJeLR cells, lethal RSL3 dose. The method, then: Bar graph: mean+s.d.; n=3. *, P<0.05.
2 million cells were seeded on 10 cm dishes. The next day, cells were treated with compounds to induce GSH depletion followed by harvesting to determine cell number. Two million live cells from each sample were transferred to new tubes, and centrifuged at 1,000 rpm at 4° C. for 5 minutes. The cell pellet was resuspended in 1 mL of PB buffer (10 mM sodium phosphate buffer, 1 mM EDTA, pH 7) and sonicated using 60 Joule energy. The lysate was centrifuged at 13,200 rpm at 4° C. for 10 minutes, and then the cleared lysate was used to determine the amount of GSH in the sample. The QuantiChrome glutathione assay kit (BioAssay Systems, cat # DIGT-250) was used and the product instructions were followed to determine GSH level.

Data set [10] has as its system BJeH, BJeHLT, BJeLR and DRD cells. The format is cell-based.

Take `O=c1cc(-c2ccccc2)oc2cc(O)c(O)c(O)c12` [BAI, Baicalein]: in data set [1], the “suppression of cell death induced by RSL compounds” value is recorded as “strongly suppressed cell death induced by all RSL compounds”, the “suppression of cell death induced by non-RSL compounds” value is “not able to suppress cell death induced by eleven non-RSL compounds” and the “suppression of erastin-induced cell death” value is “strongly suppressed erastin-induced cell death”.

Turning to `N#CC(=Cc1ccc(O)c(O)c1)C(=O)OCC=Cc1ccccc1` [CDC, cinnamyl-3,4-dihydroxy-a-cyanocinnamate], the “suppression of erastin-induced cell death” value in [1] was “strongly suppressed erastin-induced cell death”. Turning to `N#CC(=C(/N)Sc1ccccc1N)/C(C#N)=C(\N)Sc1ccccc1N` [Compound U0126], the “rescue of siGPX4-induced cell death” value in data set [2] was “rescued”. As for `CCc1ccc(/C=C2\SC(=S)N(CCC(=O)NCCCN3CCOCC3)C2=O)cc1` [DPI2], the “GFP-ALOX5 translocation to the nuclear membrane” value (“GFP-ALOX5 translocation” below) in data set [3] is given as “translocated GFP-ALOX5 to the nuclear membrane”.

With `CC(C)c1onc(C(=O)N2CCN(C(c3ccccc3)c3ccccc3)CC2)c1[N+](=O)[O-]` [DPI10], the “GFP-ALOX5 translocation” value in data set [3] is listed as “translocated GFP-ALOX5 to the nuclear membrane”. For the compound `Nc1nc(CCl)nc(Nc2ccc3ccccc3c2)n1` [DPI17], the “GFP-ALOX5 translocation” value in data set [3] is recorded as “translocated GFP-ALOX5 to the nuclear membrane”. For the compound `N[C@@H](CCC(=O)N[C@@H](CS)C(=O)NCC(=O)O)C(=O)O` [GSH, reduced glutathione], the “rescue from erastin lethality by GSH supplementation” value in data set [4] (1 mM GSH) is recorded as “rescued cells from erastin lethality”. Take `COc1ccc2c(c1)c(CC(=O)O)c(C)n2C(=O)c1ccc(Cl)cc1` [Indomethacin]: the “suppression of erastin-induced cell death” value in data set [1] was “only minimally effective in suppressing erastin lethality”.

Consider `CC(=O)N[C@@H](CS)C(=O)O` [NAC, N-acetyl-cysteine], for which, in data set [5], the “rescue from erastin lethality by NAC supplementation” value is “rescued cells from erastin lethality”. With `c1ccc2c(c1)SCc1c-2[nH]c2ccccc12` [PD-146176], the “suppression of erastin-induced cell death” value in data set [1] is “strongly suppressed erastin-induced cell death”. In the case of `COC(=O)c1ccc([C@@H]2c3[nH]c4ccccc4c3C[C@@H](C(=O)OC)N2C(=O)CCl)cc1` [RSL3], in [6], the “effect of ALOX15B knockdown on compound-induced cell death” value is on record as “sensitized cells to RSL3-induced cell death” and the “effect of ALOXE3 knockdown on compound-induced cell death” value is “suppressed”. Moreover, in data set [7], the “GFP-ALOX5 translocation” value is recorded as “caused GFP-ALOX5 translocation to the nuclear membrane”. Further, the “lipid peroxide generation (BODIPY-C11 fluorescence)” value in data set [8] is given as “generation of lipid peroxides”. Besides, the “cellular GSH level” value in data set [9] is recorded as “remained unaffected”. The selective lethality entry in [10] (0.4 μM RSL3, BJeLR vs BJeHLT cells) is recorded as “exhibited selective lethality in BJeLR cells”. For the compound `CN[C@@H]1C[C@H]2O[C@@](C)([C@@H]1OC)n1c3ccccc3c3c4c(c5c6ccccc6n2c5c31)C(=O)NC4` [STS, Staurosporine], in [3], the “GFP-ALOX5 translocation” value is “did not”. In the case of `CC(c1cc2ccccc2s1)N(O)C(N)=O` (stereo not shown) [Zileuton], the “rescue of siGPX4-induced cell death” value in [2] (10 μM U0126, 100 μM Vit. E, 100 μM DFOM, 50 μM ZIL) is reported as “rescued”. In data set [1], the “suppression of cell death induced by RSL compounds” value is on record as “strongly suppressed cell death induced by all RSL compounds”, the “suppression of cell death induced by non-RSL compounds” value is given as “not able to suppress cell death induced by eleven non-RSL compounds” and the “suppression of erastin-induced cell death” value is on record as “strongly suppressed erastin-induced cell death”. In the case of `C[C@H]1O[C@@H](O[C@H]2[C@@H](O)C[C@H](O[C@H]3[C@@H](O)C[C@H](O[C@H]4CC[C@@]5(C)[C@H](CC[C@@H]6[C@@H]5C[C@@H](O)[C@]5(C)[C@@H](C7=CC(=O)OC7)CC[C@]65O)C4)O[C@@H]3C)O[C@@H]2C)C[C@H](O)[C@@H]1O` [digoxin, Digoxin], the “GFP-ALOX5 translocation” value in data set [3] is “induced GFP-ALOX5 translocation”. As for `C[C@H](CCC(=O)O)C[C@H](C)C[C@H](C)C(=O)/C=C(\O)[C@H](C)C[C@H](C)C/C=C/[C@@H](C)[C@@H](O)[C@@H](C)[C@@H](O)C[C@@H]1CC[C@@](C)([C@H]2CC[C@@](C)([C@@H](C)O)O2)O1` [ionomycin], the “GFP-ALOX5 translocation” value in data set [7] was “induced localization of GFP-ALOX5 to the nuclear membrane in all BJ-derived cell lines”. Consider Vitamin E [Vit. E], for which, in [2], the “rescue of siGPX4-induced cell death” value is given as “rescued”. As to lysophosphatidyl choline [lyso-PC], in data set [4], the “effect of lyso-PC on erastin-induced cell death” value is recorded as “modestly sensitized cells to erastin-induced cell death”. Besides, the “differential cytotoxicity between BJeH and BJeLR” value in [10] (lyso-PC alone, 24 hours) was “did not show differential cytotoxicity”.
